In patent publication EP4603105A1, “PHARMACEUTICAL COMPOSITION CONTAINING CYCLIC COMPOUND HAVING SELECTIVE KRAS INHIBITORY EFFECT AGAINST HRAS AND NRAS” (CHUGAI SEIYAKU KABUSHIKI KAISHA, priority 2022, dated 2024):
*1 amine or outer side, *2 acyl side, *3 side chain or, on linkers, in order; H or OH if unused. Where a SMILES comes first, the peptide text is derived from it. Bridges are numbered along the chain shown (N, C = ends). [ ]: non-standard residue; d: D form. The star is where a group is joined. hPhe(3-Cl-4-CF3) = N[C@@H](CCc1ccc(C(F)(F)F)c(Cl)c1)C(=O)O; NPrPhe(4-CF3) = CCCN[C@@H](Cc1ccc(C(F)(F)F)cc1)C(=O)O; X2 = C[C@@H]1CN([*:1])[C@@H]1C(=O)[*:2]; NMeGly(cPent) = CN[C@H](C(=O)O)C1CCCC1; NMeD = CN[C@@H](CC(=O)O)C(=O)O; NMeL = CN[C@@H](CC(C)C)C(=O)O; Morpholide = C1CN(*)CCO1; Ac5c = NC1(C(=O)O)CCCC1; Sar = CNCC(=O)O

Assays:
[1] = biological target: GDP-bound KRAS wild-type protein (Homo sapiens, UniProt P01116); assay: Binding to KRAS by surface plasmon resonance (SPR), dissociation constant KD
Chain of GDP-bound KRAS wild-type protein (P01116 1-188 isoform P01116-2): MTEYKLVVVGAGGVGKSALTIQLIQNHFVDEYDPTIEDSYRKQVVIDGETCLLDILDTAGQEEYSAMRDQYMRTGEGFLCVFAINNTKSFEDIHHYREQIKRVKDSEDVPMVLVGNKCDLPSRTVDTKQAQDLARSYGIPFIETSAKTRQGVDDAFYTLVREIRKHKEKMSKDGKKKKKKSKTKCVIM
How it was run: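 SPR, 30°C: Avi-biotin RAS·GDP captured via Biotin CAPture (~100–300 RU); running buffer HBS pH 7.4, 1 mM DTT, 10 mM MgCl2, 0.01% Tween 20, 10 µM GDP, 4% DMSO. Single-cycle kinetics, 100 µL/min, 75 s injections; 1:1 model → KD.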

[2] = biological target: GDP-bound NRAS wild-type protein (Homo sapiens, UniProt P01111); assay: Binding to NRAS by surface plasmon resonance (SPR), KD and KD ratio to KRAS
Chain of GDP-bound NRAS wild-type protein (P01111 whole entry): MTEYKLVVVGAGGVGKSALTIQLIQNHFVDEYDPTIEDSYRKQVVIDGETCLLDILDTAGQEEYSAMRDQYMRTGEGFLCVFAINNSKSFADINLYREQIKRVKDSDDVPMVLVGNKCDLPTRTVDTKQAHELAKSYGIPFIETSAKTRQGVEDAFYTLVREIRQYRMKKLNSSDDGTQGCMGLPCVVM
How it was run: (§1)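 Captured GDP-RAS (~100–300 RU) was exposed to increasing compound concentrations, 75 s per step, in running buffer with 10 µM GDP, 10 mM MgCl2 and 4% DMSO at pH 7.4.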

HRAS wild-type protein = HRAS wild-type protein (Homo sapiens, UniProt P01112); assay: Binding to HRAS by surface plasmon resonance (SPR), KD and KD ratio to KRAS
Chain of HRAS wild-type protein (P01112 whole entry): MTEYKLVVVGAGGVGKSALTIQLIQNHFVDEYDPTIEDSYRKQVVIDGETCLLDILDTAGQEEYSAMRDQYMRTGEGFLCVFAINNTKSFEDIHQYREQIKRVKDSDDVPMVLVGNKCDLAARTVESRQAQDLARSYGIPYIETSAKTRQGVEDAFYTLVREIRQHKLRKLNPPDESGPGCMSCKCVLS
How it was run: as §1

[3] = test system: human lung cancer strain NCI-H441; format: cell-based
How it was run: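 Step one: dispense the test compound in serial DMSO dilutions. Step three: add the reagent and measure […].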

[4] = Single Cycle Kinetics, 1:1 binding model
[5] = ratio of the KD value with respect to GDP-bound NRAS wild-type protein to the KD value with respect to KRAS
[6] = ratio of the KD value with respect to HRAS wild-type protein to the KD value with respect to KRAS
[7] = ratio of KD for GDP-bound NRAS wild-type protein to KD for KRAS
[8] = ratio of KD for HRAS wild-type protein to KD for KRAS
[9] = ratio of KD value for GDP-bound NRAS wild-type protein to KD value for KRAS (SPR)
[10] = ratio of KD value for HRAS wild-type protein to KD value for KRAS (SPR)

SMILES	Kd [1, 4]	IC50 [3]	Kd ([1]; 1:1 binding model)	NRAS /KRAS [2, 5]	HRAS /KRAS (HRAS wild-type protein; [6])	NRAS /KRAS [2, 7]	HRAS /KRAS (HRAS wild-type protein; [8])	Kd ([1]; Single Cycle Kinetics)	NRAS /KRAS [2, 9]	HRAS /KRAS (HRAS wild-type protein; [10])
C#CC[C@H]1C(=O)N[C@@H]([C@@H](C)CC)C(=O)N(C)CC(=O)N(C)[C@H]2C/C=C\CCN(C2=O)[C@@H](Cc2ccc(C(F)(F)F)cc2)C(=O)N(C)CC(=O)N[C@@H](CCc2ccc(C(F)(F)F)c(OC)c2)C(=O)N2C[C@H](F)C[C@H]2C(=O)NC2(CC(C)(C)C2)C(=O)N(C)[C@@H](CCC=C)C(=O)N(C)[C@H](C(=O)N(C)C)CC(=O)N1C [PP3126]		116 nM	0.81 nM			AA (a compound having 20 or more is denoted as AA)	A (a compound having 10 or more and less than 20 is denoted as A)			
CCC[C@H]1C(=O)N[C@@H]([C@@H](C)CC)C(=O)N(C)CC(=O)N(C)[C@H]2C/C=C\CCN(C2=O)[C@@H](Cc2ccc(C)cc2)C(=O)N(C)CC(=O)N[C@@H](CCc2cc(F)c(C(F)(F)F)c(F)c2)C(=O)N2C[C@H](CC)C[C@H]2C(=O)NC2(CCCC2)C(=O)N(C)[C@@H](C2CCCC2)C(=O)N(C)[C@H](C(=O)N(C)C)CC(=O)N1C [PP2216]	0.23 nM	50.8 nM		A (a compound having 10 or more and less than 20 is denoted as A)	A (a compound having 10 or more and less than 20 is denoted as A)					
CCO[C@@H]1C[C@H]2C(=O)NC3(CCC3)C(=O)N(C)[C@@H](C3CCCC3)C(=O)N(C)[C@H](C(=O)N3C4CCC3COC4)CC(=O)N(C)[C@@H](CC)C(=O)N[C@@H]([C@@H](C)CC)C(=O)N(C)CC(=O)N(C)[C@H]3C/C=C\CCN(C3=O)[C@@H](Cc3ccc(C(F)(F)F)cc3)C(=O)N(C)CC(=O)N[C@@H](CCc3cc(F)c(C(F)(F)F)c(F)c3)C(=O)N2C1 [PP1093]		78.7 nM				AA (a compound having 20 or more is denoted as AA)	A (a compound having 10 or more and less than 20 is denoted as A)	0.58 nM		
CCCN1C(=O)CN(C)C(=O)[C@@H]2[C@H](C)CN2C(=O)[C@H]([C@@H](C)CC)NC(=O)[C@H](CC(C)C)N(C)C(=O)C[C@@H](C(=O)N2CCOCC2)N(C)C(=O)[C@H](C2CCCC2)N(C)C(=O)C2(CCCC2)NC(=O)[C@@H]2CCCN2C(=O)[C@H](CCc2ccc(C(F)(F)F)c(Cl)c2)NC(=O)CN(C)C(=O)[C@@H]1Cc1ccc(C(F)(F)F)cc1 [PP0257] ([NMeL]I[X2][Sar][NPrPhe(4-CF3)][Sar][hPhe(3-Cl-4-CF3)]P[Ac5c][NMeGly(cPent)][NMeD]-Morpholide; lactam N-11)		30.8 nM	1.4 nM			B (a compound having 3 or more and less than 10 is denoted as B)	B (a compound having 3 or more and less than 10 is denoted as B)			
CCO[C@@H]1C[C@H]2C(=O)NC3(CC(C)(C)C3)C(=O)N(C)[C@@H](C3CCCC3)C(=O)N(C)[C@H](C(=O)N(C)CC)CC(=O)N(C)[C@@H]([C@@H](C)OC)C(=O)N[C@@H]([C@@H](C)CC)C(=O)N3CCC[C@H]3C(=O)N(C)[C@H]3C/C=C\CCN(C3=O)[C@@H](Cc3ccc(C)cc3)C(=O)N(C)CC(=O)N[C@@H](CCc3ccc(C(F)(F)F)c(OC)c3)C(=O)N2C1 [PP3188]		64.7 nM	0.99 nM			A (a compound having 10 or more and less than 20 is denoted as A)	A (a compound having 10 or more and less than 20 is denoted as A)			
CCO[C@@H]1C[C@H]2C(=O)NC3(CCC3)C(=O)N(C)[C@@H](C(CC)CC)C(=O)N(C)[C@H](C3CCC3)CC(=O)N(C)[C@@H](CC3CC3)C(=O)N[C@@H]([C@@H](C)CC)C(=O)N(C)CC(=O)N(C)[C@H]3C/C=C\CCN(C3=O)[C@@H](Cc3ccc(C(F)(F)F)cc3)C(=O)N(C)CC(=O)N[C@@H](CCc3cc(F)c(C(F)(F)F)c(F)c3)C(=O)N2C1 [PP1636]	2.8 nM	95.2 nM							A (a compound having 10 or more and less than 20 is denoted as A)	A (a compound having 10 or more and less than 20 is denoted as A)
CCC[C@H]1C(=O)N[C@@H]([C@@H](C)CC)C(=O)N(C)CC(=O)N(C)[C@H]2C/C=C\CCN(C2=O)[C@@H](Cc2ccc(C)cc2)C(=O)N(C)CC(=O)N[C@@H](CCc2ccc(C(F)(F)F)c(Cl)c2)C(=O)N2C[C@H](CC)C[C@H]2C(=O)NC2(CCC2)C(=O)N(C)[C@@H](C2CCCC2)C(=O)N(C)[C@H](C(=O)N(C)C)CC(=O)N1C [PP2237]	0.14 nM	64.7 nM		A (a compound having 10 or more and less than 20 is denoted as A)	A (a compound having 10 or more and less than 20 is denoted as A)					
CCO[C@@H]1C[C@H]2C(=O)NC3(CCC3)C(=O)N(C)[C@@H](C(CC)CC)C(=O)N(C)[C@H](C)CC(=O)N(C)[C@@H](CC(C)C)C(=O)N[C@@H]([C@@H](C)CC)C(=O)N(C)CC(=O)N(C)[C@H]3C/C=C\CCN(C3=O)[C@@H](Cc3ccc(F)cc3C)C(=O)N(C)CC(=O)N[C@@H](CCc3cc(F)c(C(F)(F)F)c(F)c3)C(=O)N2C1 [PP1524]	5.7 nM	439 nM							B (a compound having 3 or more and less than 10 is denoted as B)	B (a compound having 3 or more and less than 10 is denoted as B)

Compounds with a lower IC50 [3], results first:

Kd [1, 4]	IC50 [3]	Kd ([1]; 1:1 binding model)	SMILES	NRAS /KRAS [2, 5]	HRAS /KRAS (HRAS wild-type protein; [6])	NRAS /KRAS [2, 7]	HRAS /KRAS (HRAS wild-type protein; [8])	Kd ([1]; Single Cycle Kinetics)	NRAS /KRAS [2, 9]	HRAS /KRAS (HRAS wild-type protein; [10])
0.26 nM	13.6 nM		CCC[C@H]1C(=O)N[C@@H]([C@@H](C)CC)C(=O)N(C)CC(=O)N(C)[C@H]2C/C=C\CCN(C2=O)[C@@H](Cc2ccc(C)cc2)C(=O)N(C)CC(=O)N[C@@H](CCc2cc(F)c(C(F)(F)F)c(F)c2)C(=O)N2C[C@H](OCC)C[C@H]2C(=O)NC2(CC(C)(C)C2)C(=O)N(C)[C@@H](C(CC)CC)C(=O)N(C)[C@H](C(=O)N(C)C)CC(=O)N1C [PP2064]	A (a compound having 10 or more and less than 20 is denoted as A)	A (a compound having 10 or more and less than 20 is denoted as A)					
	19.1 nM	0.53 nM	CCO[C@@H]1C[C@H]2C(=O)NC3(CC(C)(C)C3)C(=O)N(C)[C@@H](C3CCCC3)C(=O)N(C)[C@H](C(=O)N(C)C)CC(=O)N(C)[C@@H]([C@@H](C)OC)C(=O)N[C@@H]([C@@H](C)CC)C(=O)N(C3CC3)CC(=O)N(C)[C@H]3C/C=C\CCN(C3=O)[C@@H](Cc3ccc(C)cc3)C(=O)N(C)CC(=O)N[C@@H](CCc3ccc(C(F)(F)F)c(OC)c3)C(=O)N2C1 [PP3210]			A (a compound having 10 or more and less than 20 is denoted as A)	B (a compound having 3 or more and less than 10 is denoted as B)			
0.081 nM	2 nM		CCO[C@@H]1C[C@H]2C(=O)NC3(CCC3)C(=O)N(C)[C@@H](C3CCCC3)C(=O)N(C)[C@H](C(=O)N(C)CC)CC(=O)N(C)[C@@H](CC3CCC3)C(=O)N[C@@H]([C@@H](C)CC)C(=O)N(C)CC(=O)N(C)[C@H]3C/C=C\CCN(C3=O)[C@@H](Cc3ccc(C(F)(F)F)cc3)C(=O)N(C)CC(=O)N[C@@H](CCc3cc(F)c(C(F)(F)F)c(F)c3)C(=O)N2C1 [PP1667]						A (a compound having 10 or more and less than 20 is denoted as A)	A (a compound having 10 or more and less than 20 is denoted as A)
0.17 nM	9.4 nM		CCO[C@@H]1C[C@H]2C(=O)NC3(CC(C)(C)C3)C(=O)N(C)[C@@H](C(CC)CC)C(=O)N(C)[C@H](C(=O)N(C)C)CC(=O)N(C)[C@@H](CC(C)C)C(=O)N[C@@H]([C@@H](C)CC)C(=O)N(C)CC(=O)N(C)[C@H]3C/C=C\CCN(C3=O)[C@@H](Cc3ccc(C)cc3)C(=O)N(C)CC(=O)N[C@@H](CCc3cc(F)c(C(F)(F)F)c(F)c3)C(=O)N2C1 [PP2141]	A (a compound having 10 or more and less than 20 is denoted as A)	A (a compound having 10 or more and less than 20 is denoted as A)					
0.14 nM	7.6 nM		CCCC[C@H]1C(=O)N[C@@H]([C@@H](C)CC)C(=O)N(C)CC(=O)N(C)[C@H]2C/C=C\CCN(C2=O)[C@@H](Cc2ccc(C(F)(F)F)cc2)C(=O)N(C)CC(=O)N[C@@H](CCc2cc(F)c(C(F)(F)F)c(F)c2)C(=O)N2C[C@H](OCC)C[C@H]2C(=O)NC2(CCC2)C(=O)N(C)[C@@H](C2CCCC2)C(=O)N(C)[C@H](C(=O)N(CC)CC)CC(=O)N1C [PP1576]						AA (a compound having 20 or more is denoted as AA)	A (a compound having 10 or more and less than 20 is denoted as A)
0.34 nM	20.5 nM		CCCOC[C@H]1C(=O)N[C@@H]([C@@H](C)CC)C(=O)N(C)CC(=O)N(C)[C@H]2C/C=C\CCN(C2=O)[C@@H](Cc2ccc(C)cc2)C(=O)N(C)CC(=O)N[C@@H](CCc2cc(F)c(C(F)(F)F)c(F)c2)C(=O)N2C[C@H](CCC)C[C@H]2C(=O)NC2(CC(C)(C)C2)C(=O)N(C)[C@@H](C2CCCC2)C(=O)N(C)[C@H](C(=O)N(C)C)CC(=O)N1C [PP2203]	A (a compound having 10 or more and less than 20 is denoted as A)	A (a compound having 10 or more and less than 20 is denoted as A)					
0.17 nM	6.7 nM		CCCOC[C@H]1C(=O)N[C@@H]([C@@H](C)CC)C(=O)N(C)CC(=O)N(C)[C@H]2C/C=C\CCN(C2=O)[C@@H](Cc2ccc(C)cc2)C(=O)N(C)CC(=O)N[C@@H](CCc2cc(F)c(C(F)(F)F)c(F)c2)C(=O)N2C[C@H](OCC)C[C@H]2C(=O)NC2(CC(C)(C)C2)C(=O)N(C)[C@@H](C2CCCC2)C(=O)N(C)[C@H](C(=O)N(C)CC)CC(=O)N1C [PP1577]						B (a compound having 3 or more and less than 10 is denoted as B)	B (a compound having 3 or more and less than 10 is denoted as B)
